Experimental data taken from ChEMBL document CHEMBL1158233, “Cytotoxic Cembranoids from the Soft Corals Sinularia gibberosa and Sarcophyton trocheliophorum” (1996).
Converted amounts (≈) assume the structure as drawn.

Columns and labels:
Format in all cases: functional
[1] = test system: HT-29; assay: Cytotoxicity against human HT29 cells after 6 days by MTT assay; conditions: HT-29, 144 h, read-out: ED50 (the source's name)
[2] = test system: P388; assay: Cytotoxicity against mouse P388 cells after 3 days by MTT assay; conditions: P388, 72 h, read-out: ED50 (the source's name)
[3] = test system: A549; assay: Cytotoxicity against human A549 cells after 6 days by MTT assay; conditions: A549, 144 h, read-out: ED50 (the source's name)
[4] = test system: KB; assay: Cytotoxicity against human KB cells after 3 days by MTT assay; conditions: 72 h, read-out: ED50 (the source's name)

Molecule `COC(C)(C)/C1=C/[C@H]2O[C@]2(C)CC/C=C(\C)CC[C@H]2O[C@]2(C)CC1` has an EC50 [1] of 0.36 µg/mL (≈ 1.08 µM), an EC50 [2] of 3.26 µg/mL (≈ 9.75 µM) and an EC50 [3] of over 50 µg/mL. For the same molecule, the EC50 [4] was over 50 µg/mL.
In the case of `CC1=C2CC/C(C)=C/CC[C@@](C)(O)[C@@H](O)CC/C(C)=C/[C@@H]2OC1=O`, the EC50 [1] is reported as 22.9 µg/mL (≈ 68.4 µM), the EC50 [2] is reported as 3.27 µg/mL (≈ 9.78 µM) and the EC50 [3] is reported as 24.7 µg/mL (≈ 73.7 µM). For the same molecule, the EC50 [4] was over 50 µg/mL.
`CC1=C2CC/C(C)=C/CC[C@]3(C)O[C@H]3CC/C(C)=C/[C@@H]2OC1` showed an EC50 [1] of 16.1 µg/mL (≈ 53.1 µM), an EC50 [2] of 3.87 µg/mL (≈ 12.8 µM) and an EC50 [3] of 15.7 µg/mL (≈ 52 µM). The EC50 [4] was over 50 µg/mL.
`C/C1=C\CCC(C)(O)C2C=C(C(C)(C)O)C(C/C(C)=C/CC1)O2` (stereo not drawn) gave an EC50 [1] of 1.81 µg/mL (≈ 5.65 µM), an EC50 [2] of 0.23 µg/mL (≈ 0.718 µM) and an EC50 [3] of 1.7 µg/mL (≈ 5.3 µM). It also gave an EC50 [4] of 17.1 µg/mL (≈ 53.4 µM).
Molecule `C/C1=C\C=C(\C(C)(C)O)C(O)C/C(C)=C/CC/C(C)=C/CC1` (stereo not drawn) has an EC50 [1] of 0.29 µg/mL (≈ 0.952 µM), an EC50 [2] of 1.54 µg/mL (≈ 5.06 µM) and an EC50 [3] of 20.2 µg/mL (≈ 66.2 µM). The EC50 [4] was 14.9 µg/mL (≈ 49 µM).
`CC1=C2CC/C(C)=C/CC[C@]3(C)O[C@H]3CC/C(C)=C/[C@@H]2OC1=O` [SARCOPHINE] showed an EC50 [1] of 10.5 µg/mL (≈ 33.1 µM), an EC50 [2] of 2.42 µg/mL (≈ 7.65 µM) and an EC50 [3] of 10.4 µg/mL (≈ 32.8 µM). The EC50 [4] was over 50 µg/mL.
For `C/C1=C\C=C(\C(C)(C)O)CC[C@@]2(C)O[C@@H]2CC/C(C)=C/CC1`, the EC50 [1] was 0.64 µg/mL (≈ 2.1 µM), the EC50 [2] was 0.01 µg/mL (≈ 0.0328 µM) and the EC50 [3] was 1.03 µg/mL (≈ 3.38 µM). The EC50 [4] was 0.63 µg/mL (≈ 2.07 µM).
